Results taken from patent US12209079B2 (GENERAL INCORPORATED ASSOCIATION PHARMA VALLEY PROJECT …, priority 2017, dated 2025).
Counter-ions that a name gives are not always drawn.

How the values were obtained:
[1] = molecular target: rhIDO (recombinant human IDO) (Homo sapiens, UniProt P14902); test: Enzyme assay using rhIDO (rate of kynurenine production); type: biochemical; details: 2 h; final concentration of the compound 10 μM; rate relative to reaction without compound; read-out: rhIDO-mediated kynurenine production
Sequence of rhIDO (recombinant human IDO) (P14902 whole entry): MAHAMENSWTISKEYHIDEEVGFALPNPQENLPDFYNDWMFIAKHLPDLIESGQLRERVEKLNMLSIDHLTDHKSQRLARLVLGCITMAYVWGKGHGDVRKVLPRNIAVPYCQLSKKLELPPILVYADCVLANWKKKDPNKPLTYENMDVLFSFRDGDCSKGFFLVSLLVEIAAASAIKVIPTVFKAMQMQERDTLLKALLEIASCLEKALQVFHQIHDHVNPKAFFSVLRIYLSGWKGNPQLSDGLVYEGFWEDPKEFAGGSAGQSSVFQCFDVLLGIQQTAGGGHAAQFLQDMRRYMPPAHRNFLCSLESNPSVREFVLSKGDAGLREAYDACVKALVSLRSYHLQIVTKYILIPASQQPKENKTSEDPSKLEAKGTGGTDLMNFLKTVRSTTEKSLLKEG
Protocol: Enzyme Assay Protocol Using rhIDO (Recombinant Human IDO)
4 μL of a compound solution was added to 176 μL of a rhIDO reaction solution (0.5 M potassium phosphate buffer (20 μL), 0.2 M ascorbic acid (20 μL), 0.5 mM methylene blue (4 μL), 10 mg/mL catalase (2 μL), H2O (128 μL), and rhIDO (2 μL)). The mixture was pipetted and preincubated at 37° C. for 10 minutes. Then, the whole amount was brought to 200 μL by the addition of 20 μL of a 2 mM aqueous tryptophan solution, and the mixture was pipetted again and reacted at 37° C. for 120 minutes. After the reaction, the enzymatic reaction was terminated by the addition of 40 μL of a 30% [v/v] aqueous trichloroacetic acid solution to the reaction solution. The mixture was well stirred by pipetting and heated at 50° C. for 15 minutes so that N-formylkynurenine was converted to kynurenine. The reaction solution thus heated was centrifuged (15,000 rpm, 5 min, 24° C.), and 150 μL of the supernatant was transferred to a transparent 96-well flat-bottomed plate, followed by the measurement of absorbance at 490 nm using SpectraMax MSSK (background measurement). After the measurement, a solution of 2% [w/v] p-dimethylbenzaldehyde in acetic acid was added at 150 μL/well and reacted for 5 minutes, followed by the measurement of absorbance at 490 nm again. The rate of kynurenine production was calculated according to the following expression. Rate of kynurenine production (%) for each compound in the case of using rhIDO={(Absorbance at 490 nm in the tryptophan-containing aqueous solution comprising rhIDO and the compound of the present invention−Absorbance of the background)/(Absorbance at 490 nm in the tryptophan-containing aqueous solution without the addition of the compound solution−Absorbance of the background)}×100 Enzyme Assay Protocol Using rhTDO (Recombinant Human TDO)

TDO in A172 cells = molecular target: T1, TDO in A172 cells (Homo sapiens, UniProt P48775); test: TDO cell-based assay, kynurenine production in A172 cells; details: A 172; final concentration of the compound 10 μM; rate relative to culture without compound
T1 construct: endogenous in cells; host or cells: A172 cells
T1 sequence (P48775 whole entry): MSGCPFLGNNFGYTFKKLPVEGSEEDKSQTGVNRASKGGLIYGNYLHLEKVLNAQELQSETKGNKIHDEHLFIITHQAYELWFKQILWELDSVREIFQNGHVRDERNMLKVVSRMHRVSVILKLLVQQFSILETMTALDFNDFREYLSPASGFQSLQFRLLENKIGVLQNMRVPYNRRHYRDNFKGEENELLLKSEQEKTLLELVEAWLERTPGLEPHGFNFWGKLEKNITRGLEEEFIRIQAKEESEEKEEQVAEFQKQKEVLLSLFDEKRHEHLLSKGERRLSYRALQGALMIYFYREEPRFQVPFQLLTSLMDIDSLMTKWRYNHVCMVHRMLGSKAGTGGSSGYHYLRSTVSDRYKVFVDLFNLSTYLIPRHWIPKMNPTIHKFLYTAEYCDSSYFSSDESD
Protocol: A172 cells (3.0×10^5 cells/mL) suspended in a culture medium for assay (PRMI-1640; Wako 186-02155, 5% FBS, 50 units/mL penicillin, and 50 μg/mL streptomycin) were inoculated at 100 μL/well to a transparent 96-well flat-bottomed plate and cultured at 37° C. for 24 hours in 5% CO2. The culture medium was removed from the cells thus cultured. A culture medium for assay was added at 80 μL/well, and further, a compound solution was added at 10 μL/well. The cells were preincubated for 1 hour. Then, the whole amount was brought to 100 μL/well by the addition of 10 μL/well of a 5 mM aqueous tryptophan solution (final concentration of L-tryptophan: 524 μM), and the cells were cultured for 24 hours. After the culture, absorbance was measured at 460 nm using SpectraMax MSSK (Molecular Devices, LLC) (background measurement). After the measurement, a kynurenine quantification reagent (prepared with 7% [v/v] aqueous trichloroacetic acid solution and a solution of 2% [w/v] p-dimethylbenzaldehyde in acetic acid at 2:5 [v/v]) was added at 200 μL/well and reacted for 5 minutes, followed by the measurement of absorbance at 460 nm again. The rate of kynurenine production was calculated according to the following expression. Rate of kynurenine production (%) for each compound in the case of using A172 cells={(Absorbance at 460 nm in the tryptophan-containing culture medium comprising the A172 cells and the solution of the compound of the present invention−Absorbance of the background)/(Absorbance at 460 nm in the tryptophan-containing culture medium without the addition of the compound solution−Absorbance of the background)}×100

IDO in A431 cells = molecular target: T2, IDO in A431 cells (Homo sapiens, UniProt P14902); test: IDO cell-based assay, kynurenine production in IFN-γ stimulated A431 cells; details: A-431, 24 h; final concentration of the compound 10 μM; rate relative to culture without compound
T2 construct: endogenous in cells; host or cells: A431 cells, IFN-γ stimulated
T2 sequence (P14902 whole entry): as the sequence (P14902 whole entry) above
Protocol: A431 cells (3.0×10^5 cells/mL) suspended in a culture medium for assay (D-MEM; Wako 040-30095, 5% FBS, 50 units/mL penicillin, 50 μg/mL streptomycin, and 2 mM L-glutamine) were inoculated at 100 μL/well to a transparent 96-well flat-bottomed plate and cultured at 37° C. for 24 hours in 5% CO2. The culture medium was removed from the cells thus cultured. A tryptophan-containing culture medium (culture medium for assay supplemented with 178 μM L-tryptophan) was added at 80 μL/well, and further, a compound solution was added at 10 μL/well. The cells were preincubated for 1 hour. Then, the whole amount was brought to 100 μL/well by the addition of 10 μL/well of IFN-γ diluted into 100 ng/mL with a tryptophan-containing culture medium, and the cells were cultured for 24 hours. After the culture, absorbance was measured at 460 nm using SpectraMax MSSK (Molecular Devices, LLC) (background measurement). After the measurement, a kynurenine quantification reagent (prepared with 7% [v/v] aqueous trichloroacetic acid solution and a solution of 2% [w/v] p-dimethylbenzaldehyde in acetic acid at 2:5 [v/v]) was added at 200 μL/well and reacted for 5 minutes, followed by the measurement of absorbance at 460 nm again. The rate of kynurenine production was calculated according to the following expression. Rate of kynurenine production (%) for each compound in the case of using A431 cells={(Absorbance at 460 nm in the tryptophan-containing culture medium comprising the A431 cells and the solution of the compound of the present invention−Absorbance of the background)/(Absorbance at 460 nm in the tryptophan-containing culture medium without the addition of the compound solution−Absorbance of the background)}×100 TDO Cell-Based Assay Protocol

[2] = molecular target: rhTDO (recombinant human TDO) (Homo sapiens, UniProt P48775); test: Enzyme assay using rhTDO (rate of kynurenine production); type: biochemical; details: 2 h; final concentration of the compound 10 μM; rate relative to reaction without compound; read-out: rhTDO-mediated kynurenine production
Sequence of rhTDO (recombinant human TDO) (P48775 whole entry): as the sequence (P48775 whole entry) above
Protocol: 4 μL of a compound solution was added to 176 μL of a rhTDO reaction solution (0.5 M potassium phosphate buffer (20 μL), 0.2 M ascorbic acid (20 μL), 0.5 mM methylene blue (4 μL), 10 mg/mL catalase (2 μL), H2O (128 μL), and rhTDO (2 μL)). The mixture was pipetted and preincubated at 37° C. for 10 minutes. Then, the whole amount was brought to 200 μL by the addition of 20 μL of a 20 mM aqueous tryptophan solution, and the mixture was pipetted again and reacted at 37° C. for 120 minutes. After the reaction, the enzymatic reaction was terminated by the addition of 40 μL of a 30% [v/v] aqueous trichloroacetic acid solution to the reaction solution. The mixture was well stirred by pipetting and heated at 50° C. for 15 minutes so that N-formylkynurenine was converted to kynurenine. The reaction solution thus heated was centrifuged (15,000 rpm, 5 min, 24° C.), and 150 μL of the supernatant was transferred to a transparent 96-well flat-bottomed plate, followed by the measurement of absorbance at 490 nm using SpectraMax M5 SK (background measurement). After the measurement, a solution of 2% [w/v] p-dimethylbenzaldehyde in acetic acid was added at 150 μL/well and reacted for 5 minutes, followed by the measurement of absorbance at 490 nm again. The rate of kynurenine production was calculated according to the following expression. Rate of kynurenine production (%) for each compound in the case of using rhTDO={(Absorbance at 490 nm in the tryptophan-containing aqueous solution comprising rhTDO and the compound of the present invention−Absorbance of the background)/(Absorbance at 490 nm in the tryptophan-containing aqueous solution without the addition of the compound solution−Absorbance of the background)}×100 IDO Cell-Based Assay Protocol

Row | SMILES | remaining activity at 10 µM [1] | remaining activity at 10 µM (TDO in A172 cells) | remaining activity at 10 µM (IDO in A431 cells) | remaining activity at 10 µM [2]
1 | N=C(N)SCc1ccc2ccccc2c1CSC(=N)N [Compound 3, naphthalene-1,2-diylbis(methylene) dicarbamimidothioate dihydrobromide] | 6% | 78% | 7% | 30%
2 | CC(C)(C)c1ccc(CSC(=N)N)c(CSC(=N)N)c1 [Compound 4, (4-(tert-butyl)-1,2-phenylene)bis(methylene) dicarbamimidothioate dihydrobromide] | 64% | 102% | 68% | 56%
3 | N=C(N)SCc1nc2ccccc2nc1CSC(=N)N [Compound 5, quinoxaline-2,3-dilylbis(methylene) dicarbamimidothioate dihydrobromide] | 69% | 113% | 85% | 84%
4 | N=C(N)SCc1c(F)c(F)c(F)c(F)c1CSC(=N)N [Compound 6, (perfluoro-1,2-phenylene)bis(methylene) dicarbamimidothioate dihydrobromide] | 15% | 74% | 75% | 9%
5 | C/N=C(\NC)SCc1ccccc1CS/C(=N/C)NC [Compound 8, 1,2-phenylenebis(methylene) (E,E)-bis(N,N′-dimethylcarbamimidothioate) dihydrodhloride] | 77% | 20% | 10% | 52%
6 | c1ccc(CCN2CN=C(SCc3ccccc3CSC3=NCN(CCc4ccccc4)CN3)NC2)cc1 [Compound 9, 1,2-bis(((5-phenethyl-1,4,5,6-tetrahydro-1,3,5-triazin-2-yl)thio)methyl)benzene] | 30% | 0% | 10% | 36%
7 | CNC(=N)SCc1ccccc1CSC(=N)NC [Compound 11, 1,2-phenylenebis(methylene) bis(methylcarbamimidothioate) dihydrochloride] | 51% | 19% | 6% | 58%
8 | Cc1ccc(CSC(=N)N)c(CSC(=N)N)c1 [Compound 12, (4-methyl-1,2-phenylene)bis(methylene) dicarbamimidothioate dihydrobromide] | 20% | 0% | 13% | 10%
9 | N=C(N)SCc1cccc(F)c1CSC(=N)N [Compound 13, (3-fluoro-1,2-phenylene)bis(methylene) dicarbamimidothioate dihydrobromide] | 15% | 42% | 32% | 9%
10 | c1ccc(CN2CN=C(SCc3ccccc3CSC3=NCN(Cc4ccccc4)CN3)NC2)cc1 [Compound 14, 1,2-bis(((5-benzyl-1,4,5,6-tetrahydro-1,3,5-triazin-2-yl)thio)methyl)benzene] | 52% | 4% | 7% | 31%
11 | c1cnc(SCc2ccccc2CSc2ncccn2)nc1 [Compound 16, 1,2-bis((pyrimidin-2-ylthio)methyl)benzene] | 66% | 74% | 76% | 68%
12 | Clc1ccc(CCN2CN=C(SCc3ccccc3CSC3=NCN(CCc4ccc(Cl)cc4)CN3)NC2)cc1 [Compound 17, 1,2-bis(((5-(4-chlorophenethyl)-1,4,5,6-tetrahydro-1,3,5-triazin-2-yl)thio)methyl)benzene] | 30% | 0% | 8% | 25%
13 | Clc1ccc(Cl)c(CN2CN=C(SCc3ccccc3CSC3=NCN(Cc4cc(Cl)ccc4Cl)CN3)NC2)c1 [Compound 18, 1,2-bis(((5-(2,5-dichlorobenzyl)-1,4,5,6-tetrahydro-1,3,5-triazin-2-yl)thio)methyl)benzene] | 23% | -1% | 7% | 27%
14 | Brc1cccc(CCN2CN=C(SCc3ccccc3CSC3=NCN(CCc4cccc(Br)c4)CN3)NC2)c1 [Compound 19, 1,2-bis(((5-(3-bromophenethyl)-1,4,5,6-tetrahydro-1,3,5-triazin-2-yl)thio)methyl)benzene] | 43% | 1% | 5% | 46%
